Series [1] deals with arterial and venous thrombi. The series is described as follows: Thrombus PET imaging and in vivo clot-to-blood ratio in cynomolgus monkeys. Details: species or system cynomolgus monkey. On the procedure: Thrombus-Imaging in Cynomolgus Monkeys
The ability of the compound described in example 40 for the imaging of thrombi was investigated in a PET-study with cynomolgus monkeys (female, 2.8-3.2 kg).
The first monkey was anesthetized with a mixture of Xylazin (Rompun®, Bayer HealthCare, Leverkusen, Germany), 0.12 mL/Kg and Ketamine (Ketavet®, Pfizer) 0.12 mL/Kg b.w. i.m. and additionally analgesized by an i.m. injection of 6 μg Buprenorphine per kg. While the investigation, small amounts of Ketamine have been injected i.m. if required. The left common carotid artery was exposed surgically and a polyethylene-tube ([…] Polyethylene Tubing, Clay Adams, PE50), which was roughened previously by sandpaper (600—CAMI Grit designation), was inserted into the vessel, advanced into the descending aorta and was left there for 30 minutes to allow for the development of a thrombus on the rough surface of the tube. Meanwhile, the monkey was placed inside the PET-scanner (Inveon PET/CT, Siemens Medical, Erlangen). […] The thickness of this layer was far below 1 mm (see also removed thrombus of Monkey 2, FIG. 7) and therewith also far below the resolution of the image, which is approximately 1 mm. This also means, that even slightest thrombi, even if their size is far less than the resolution of the imaging-device, can be visualized due to the massive accumulation of compound on the platelets of the thrombi.
At the end of the experiment the tube was removed carefully from the vessel before it was weighted and measured in a gamma counter (Automatic Gamma Counter Wizard^2 3, Perkin Elmer). […] Finally the activity of the compound in blood and thrombus as well as the ratio between the two was determined (cpm/weight [mg]). […]
The in vivo clot-to-blood ratio was determined from 5 thrombi out of the above described monkey experiments. As already mentioned above the thrombi had been removed from the vessels after imaging and had been weighted and measured in a gamma-counter (Automatic Gamma Counter Wizard^2 3, Perkin Elmer) together with blood samples taken from the animal. After incubation of the thrombi in Plasmin (Plasmin from Human Plasma, Sigma Aldrich, Plasmin-stock-solution: 500 μg Plasmin in 500 μL Tris-buffer (150 μM, pH 7.8), 20 μL Plasmin-stock-solution to 230 μL saline solution 0.9%) and removal of the thrombi from the catheter tubes, the netto weight of the thrombi was calculated and the concentration of the compound in thrombus (clot) and blood, as well as the ratio between the two was calculated.

Series [2] in a line: Blood clearance in a cynomolgus monkey (PET and gamma counter). It is filed as in vivo. As to conditions: 25 MBq i.v., PET. How it is done:
FIG. 4: Blood kinetics of the compound described in example 40 in cynomolgus monkey.
PET-imaging was performed continuously from shortly before up to 60 minutes post injection. Venous blood samples were taken at 3, 10, 30 and 60 minutes p.i. and were measured in a gamma-counter (Automatic Gamma Counter Wizard^2 3, Perkin Elmer) and expressed as cpm/mg blood. Additionally, the blood-concentration of the compound was measured from the PET-Image over the whole imaging period and expressed as % ID/g.
Blood Clearance in a Cynomolgus Monkey
The blood clearance of the compound described in example 40 has been determined in a cynomolgus monkey. A female cynomolgus monkey was anesthetized with a mixture of Xylazin (Rompun®, Bayer HealthCare, Leverkusen, Germany), 0.12 mL/kg bodyweight and Ketamine (Ketavet®, Pfizer) 0.12 mL/kg bodyweight i.m. The monkey was placed inside the PET-scanner (Inveon PET/CT, Siemens Medical, Erlangen) and 25 MBq of the compound has been injected i.v. while PET-imaging was performed continuously from shortly before up to 60 minutes post injection. Venous blood samples were taken at 3, 10, 30 and 60 minutes p.i. and were measured in a gamma-counter (Automatic Gamma Counter Wizard^2 3, Perkin Elmer). Additionally, the blood-concentration of the compound was measured from the PET-Image over the whole imaging period (FIG. 4).

A short description of series [3]: In vitro metabolic stability in liver microsomes, human. The conditions noted are these: all investigated species. On the technique in general: Microsomes from liver hold many membrane-bound enzymes, among them those of drug oxidation.
Description: (§1) Human liver microsomes in suspension (protein content 0.5 mg/mL) were used for metabolic stability studies. The incubation concentration was 0.3 μM. […] After addition of 30 μL of test compound the assay was started. The compound was dissolved in an organic solvent and diluted with the same liver microsome medium in order to keep the organic content below the recommended concentration (dimethylsulfoxide DMSO <0.2% and methanol <1%). […] The samples were frozen over night at −20° C. The solutions were centrifuged for 15 min at 3000 g. The clear supernatant (100 μL) was used to determine the concentration. The analysis was performed with an Agilent 1200 HPLC system with a LCMS/MS detector.
(§2) The susceptibility of investigated compounds to degradation by phase-I oxidative metabolism was investigated using liver microsomes from different species.
The next series has as its system human thrombi. The series is described as follows: Ex vivo blood flow model: binding to human thrombi, with cold-compound competition. The conditions noted are these: 3 minutes post-injection of 18F-labeled compound; ± SEM. The text has this:
Binding to Human Thrombi:
The binding of compounds to thrombi was further investigated in an ex vivo blood flow model similar to that described in “Wakhloo, A. K. et al. Thrombus and stroke 2008, in vitro models 57-66” but modified with regard to thrombus development. Briefly, an open handmade tube-set consisting of tygon-tubes (Tygon R-1000, part No AAU00007: I.D. 3.2 mm, O.D. 6.4 mm, Saint Gobain Performance Plastics North America), intermediate tubes (Intrafix® Infusion set, B. Braun, Melsungen, Germany) an open reservoir (10 mL Combitip, Eppendorf) and a chamber made of a piece of polyethylene-Tube, ([…] Polyethylene Tubing, Clay Adams, PE160, length: 6.5 cm) containing a loop of a roughened thread (fishing line: Okuma UltraMax whitefish, diameter: 0.14 mm, length: 5 cm; sandpaper: CAMI Grit designation: 600, CP918a, VSM) was used for thrombus formation. The connection between the intermediate tube and the thrombus chamber was made by trimmed tips (epTIPS, 200 μL, Eppendorff, Hamburg/Germany). The Reservoir and the thrombus chamber were fixed by clamps and stands. A peristaltic-pump (Minipuls 3, Gilson, Middelton/USA) was used to pump the blood around thereby adjusting the flow in the middle of the thrombus chamber to 70-90 cm per second, which was monitored by ultrasound Doppler measurement (Vevo 770 High-Resolution In Vivo Micro-Imaging System, VisualSonics, Toronto/Ontario, Canada; Scanhead: RMV 704, 40 MHz). The volume of the entire tube-set was 7.5 or 15 mL.
For each experiment fresh blood was taken from a volunteer using 10 mL citrate-tubes (Sarstedt S-Monovette 02.1067.001, 10 mL, Citrate 3.13%) and immediately laid into the turning-device of an incubator at a temperature of 37° C. (Heraeus miniTherm CTT with integrated rotation- and turning device, turning speed: 19 rotations per minute, Heraeus Instruments GmbH, Hanau/Germany). As needed, two tubes were taken out of the turning-device and 15 mL were transferred to a 20 mL Syringe (Omnifix®, B. Braun, Melsungen/Germany) and gently mixed with 0.75 mL CaCl2—Solution before the peristaltic pump was started and the whole content of the syringe was transferred into the reservoir of the tube-set via a cell strainer (BD Falcon™ cell strain, 40 μm, BD, Franklin Lakes, N.J. USA). […] Then, the pump was stopped, aliquots were taken from the blood and the thrombus together with the roughened thread was removed from the thrombus-chamber before both was weighted and measured in a gamma counter (Automatic Gamma Counter Wizard^2 3, Perkin Elmer). […] Finally the activity of the compound in blood and thrombus as well as the ratio between both was determined (cpm/weight [mg]). […]

For series [4] the following is noted: both, human, 0.3 μM, pH 7.4.
Description: as §1, §2
The conditions of series [5]: male, Wistar, rat, 0.3 μM, pH 7.4.
Description: as §1, §2
A short description of series [6]: In vitro metabolic stability in liver microsomes, mouse. Format: in vitro ADME. The conditions noted are these: NMRI, female, 0.3 μM, calculated. On the procedure: In Vitro Metabolic Stability in Liver Microsomes
The incubation concentration was 0.3 μM. […] The samples were frozen over night at −20° C.
The recovery was almost 100% for all investigated species.

The conditions of series [7]: female, cynomolgus monkey, 0.3 μM, pH 7.4.
Description: as §1, §2
Series [8] in a line: Pharmacokinetics / biodistribution in mice. Format: in vivo. As to conditions: nude mice, 185 KBq. On the procedure:
FIG. 3: Biodistribution of the compound described in example 41 in mice.
The biodistribution of the compound described in example 41 was determined in nude mice. Briefly, the mice received 185 KBq of the compound each. At different time points (1, 3, 10, 30, 120 minutes p.i., 3 mice per group) the animals were sacrificed and the organs of interest or aliquots thereof were removed, weighted and finally measured in a gamma counter (Automatic Gamma Counter Wizard^2 3, Perkin Elmer).

Values joined by “and” are separate entries in the source; they are usually repeats but may differ in a detail not shown here. Identical values can stand only once. “Also recorded” adds a separate entry of the source. Like-named read-outs stand apart in the source and are kept apart here.

Regarding `O=C(O)C[C@H](NC(=O)[C@@H]1CCCN(C(=O)CCC2CCNCC2)C1)c1cncc(OCC[18F])c1` [Example 40, (3S)-3-[5-(2-[^18F]Fluoroethoxy)pyridin-3-yl]-3-[({(3R)-1-[3-(piperidin-4-yl)propanoyl]piperidin-3-yl}carbonyl)amino]propanoic acid], the “Blood [cpm/mg]” value in [1] (blood samples after imaging, Cynomolgus monkey) was 90 cpm/mg and 130 cpm/mg and 100 cpm/mg. In addition, the “PET signal / accumulation in thrombi” value in series [1] (cynomolgus monkeys, 25 MBq or 15 MBq i.v., up to 60 minutes p.i.) was “bright signal inside the descending aorta alongside the roughened part of the tube; also recorded: all arterial and venous thrombi showed a bright signal; also recorded: surprisingly high accumulation even in slightest venous and arterial thrombi”. In addition, in series [1] (cynomolgus monkeys, 60 minutes shown), the “retention within the thrombus” value is on record as “almost completely remains within the thrombus over a long time”. Moreover, in [1] (cynomolgus monkeys, PET), the “background in surrounding tissue or organ” value is listed as “almost no background in any surrounding tissue or organ”. Further, in series [2], the “contrast in the brain” value is listed as “completely free of contrast” and the “signal in other tissue” value is given as “only marginal signal visible in any other tissue”.

Turning to `O=C(O)C[C@H](NC(=O)[C@@H]1CCCN(C(=O)CCC2CCNCC2)C1)c1cncc(OCCF)c1` [Compound 3], the recovery in series [3] is reported as ~100%.

For `O=C(O)C[C@H](NC(=O)[C@@H]1CCCN(C(=O)CCC2CCNCC2)C1)c1ccc(OCC[18F])cc1` [Example 39, (3S)-3-[4-(2-[^18F]Fluoroethoxy)phenyl]-3-[({(3R)-1-[3-(piperidin-4-yl)propanoyl]piperidin-3-yl}carbonyl)amino]propanoic acid], the “Accumulation Thrombus [10^3 cpm/mg]” value with human thrombi is on record as 86 ± 9 (n = 6) 10^3 cpm/mg.

With `O=C(O)C[C@H](NC(=O)[C@@H]1CCCN(C(=O)CCC2CCNCC2)C1)c1cncc(OCCF)c1` [Example 3, (3S)-3-[5-(2-Fluoroethoxy)pyridin-3-yl]-3-[({(3R)-1-[3-(piperidin-4-yl)propanoyl]-piperidin-3-yl}carbonyl)amino]propanoic acid], the “CLblood” value in series [4], in series [5], in [6] and in series [7] was 2.4 mL/day/kg in each case.

On to `O=C(O)C[C@H](NC(=O)[C@@H]1CCCN(C(=O)CCC2CCNCC2)C1)c1cncc(-c2ccc(OCC[18F])cc2)c1` [Example 41, (3S)-3-{5-[4-(2-[^18F]Fluoroethoxy)phenyl]pyridin-3-yl}-3-[({(3R)-1-[3-(piperidin-4-yl)propanoyl]piperidin-3-yl}carbonyl)amino]propanoic acid], for which, in [8], the “elimination from the blood” value is on record as “rapidly eliminated from the blood”; the “enhancement in the vessel-wall” value is on record as “no enhancement in the vessel-wall”; the excretion result is “quickly excreted over the kidney and liver”. Further, in the series with human thrombi, the “Accumulation Thrombus [10^3 cpm/mg]” value was 44 ± 7 (n = 6) 10^3 cpm/mg.

Turning to `N#Cc1cc(-c2cncc([C@H](CC(=O)O)NC(=O)[C@@H]3CCCN(C(=O)CCC4CCNCC4)C3)c2)ccc1[18F]` [Example 42, (3S)-3-[5-(3-Cyano-4-[^18F]fluorophenyl)pyridin-3-yl]-3-[({(3R)-1-[3-(piperidin-4-yl)propanoyl]piperidin-3-yl}carbonyl)amino]propanoic acid], the “Accumulation Thrombus [10^3 cpm/mg]” value in the series on human thrombi was 39 ± 5 (n = 6) 10^3 cpm/mg.

As for `O=C(O)C[C@H](NC(=O)[C@@H]1CCCN(C(=O)CCC2CCNCC2)C1)c1cccc(OCC[18F])c1` [Example 38, (3S)-3-[3-(2-[^18F]Fluoroethoxy)phenyl]-3-[({(3R)-1-[3-(piperidin-4-yl)propanoyl]piperidin-3-yl}carbonyl)amino]propanoic acid], the “Accumulation Thrombus [10^3 cpm/mg]” value in the series on human thrombi is 41 ± 3 (n = 5) 10^3 cpm/mg.

These data come from patent publication US9744252B2, “Compounds for binding to the platelet specific glycoprotein IIb/IIIa and their use for imaging of thrombi” (PIRAMAL IMAGING SA, priority 2011, dated 2017).
